Each structure is given as a SMILES string.

One assay has as its target T1, mouse RORγ (Mus musculus, UniProt P51450).
T1 construct: mouse, NM_011281.2 and from Ile251 to Lys516; expressed in transfected cells; host or cells: CHO cells (transient co-transfection with pG5-Luc reporter)
T1 sequence (P51450 251-516): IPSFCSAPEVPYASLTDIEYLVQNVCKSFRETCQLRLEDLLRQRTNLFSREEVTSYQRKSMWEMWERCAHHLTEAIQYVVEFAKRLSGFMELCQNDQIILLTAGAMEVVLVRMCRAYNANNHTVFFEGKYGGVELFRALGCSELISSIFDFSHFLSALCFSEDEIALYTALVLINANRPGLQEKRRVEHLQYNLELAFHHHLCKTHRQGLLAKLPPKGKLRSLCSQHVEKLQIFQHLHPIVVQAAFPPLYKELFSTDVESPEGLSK
The experiment in a line: Luciferase reporter gene assay of inhibitory effect against RORγ transcriptional activity (GAL4-mRORγ plasmid in CHO cells). Type of assay: cell-based. As to conditions: read-out: LUC EC50 (μM) mRORg. Put shortly: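 Readout is intracellular luciferase after 2-day compound exposure (8 concentrations, 0.1% DMSO) in CHO cells expressing GAL4 fused to mouse RORγ LBD residues Ile251–Lys516 plus pG5-Luc reporter. EC50 fitted from %-of-control; points showing resazurin-detected cytotoxicity dropped.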

Another assay has as its target T2, human RORγ (Homo sapiens, UniProt P51449).
T2 construct: human, NM_005060.3 and from Ser253 to Lys518; expressed in transfected cells; host or cells: CHO cells (transient co-transfection with pG5-Luc reporter)
T2 sequence (P51449 253-518): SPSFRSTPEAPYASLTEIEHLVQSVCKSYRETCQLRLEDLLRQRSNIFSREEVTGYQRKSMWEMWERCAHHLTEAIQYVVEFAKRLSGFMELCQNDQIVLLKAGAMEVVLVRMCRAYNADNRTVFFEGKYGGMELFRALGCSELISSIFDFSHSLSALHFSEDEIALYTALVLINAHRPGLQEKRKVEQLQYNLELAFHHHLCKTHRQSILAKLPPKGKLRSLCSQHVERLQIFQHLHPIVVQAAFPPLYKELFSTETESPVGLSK
Put plainly: Luciferase reporter gene assay of inhibitory effect against RORγ transcriptional activity (GAL4-hRORγ plasmid in CHO cells). Type of assay: cell-based. The conditions noted are these: read-out: LUC EC50 (μM) hRORg. Background: A reporter such as luciferase makes a cellular process visible.

In the case of `Cc1cccc(NC(=O)CCc2nnc(CCC(C)C)n2C2CC2)c1C` [Example F-78], the values for the EC50 at mouse RORγ and on human RORγ were less than 3 µM and greater than 3 µM, respectively.
As for `Cc1ccc(NC(=O)CCc2nnc(CCC(C)C)n2C2CC2)c(C)c1` [Example F-79], the 50% effective concentration (EC50) on mouse RORγ and on human RORγ was greater than 3 µM each time.
For `Cc1cccnc1NC(=O)CCc1nnc(CCC(C)C)n1C1CC1` [Example F-80], the EC50 on mouse RORγ and at human RORγ was greater than 3 µM in each case.
Take `CC(C)CCc1nnc(CCC(=O)Nc2cccc3ccccc23)n1C1CC1` [Example F-81]: the EC50 on mouse RORγ and on human RORγ was less than 3 µM throughout.
As for `COc1ccc(NC(=O)CCc2nnc(CCC(C)C)n2C2CC2)c(C)c1` [Example F-82], the concentration for a half-maximal effect (EC50) at mouse RORγ and at human RORγ was greater than 3 µM throughout.
`Cc1c(Br)cccc1NC(=O)CCc1nnc(CCC(C)C)n1C1CC1` [Example F-84]: the concentration for a half-maximal effect (EC50) at mouse RORγ and at human RORγ was less than 3 µM throughout.
With `COc1cccc(NC(=O)CCc2nnc(CCC(C)C)n2C2CC2)c1C` [Example F-85], the concentration for a half-maximal effect (EC50) on mouse RORγ and on human RORγ was greater than 3 µM throughout.
As to `COc1cccc(C)c1NC(=O)CCc1nnc(CCC(C)C)n1C1CC1` [Example F-86], the EC50 at mouse RORγ and on human RORγ was greater than 3 µM throughout.
Regarding `Cc1c(CO)cccc1NC(=O)CCc1nnc(CCC(C)C)n1C1CC1` [Example F-87], the EC50 at mouse RORγ and on human RORγ was greater than 3 µM throughout.
Turning to `Cc1cc(CO)ccc1NC(=O)CCc1nnc(CCC(C)C)n1C1CC1` [Example F-88], the EC50 on mouse RORγ and at human RORγ was greater than 3 µM throughout.
Turning to `Cc1cnccc1NC(=O)CCc1nnc(CCC(C)C)n1C1CC1` [Example F-89], the 50% effective concentration (EC50) at mouse RORγ and on human RORγ was greater than 3 µM throughout.
`Cc1ccncc1NC(=O)CCc1nnc(CCC(C)C)n1C1CC1` [Example F-90]: the EC50 at mouse RORγ and at human RORγ was greater than 3 µM in each case.
With `Cc1ncccc1NC(=O)CCc1nnc(CCC(C)C)n1C1CC1` [Example F-91], the half-maximal effective concentration (EC50) at mouse RORγ and on human RORγ was greater than 3 µM throughout.
Consider `COc1ccc(C)c(NC(=O)CCc2nnc(CCC(C)C)n2C2CC2)c1` [Example F-92], for which the EC50 on mouse RORγ and on human RORγ was greater than 3 µM throughout.
As to `CC(C)CCc1nnc(CCC(=O)Nc2ccccc2Cl)n1C1CC1` [Example F-93], the EC50 at mouse RORγ and on human RORγ was greater than 3 µM in each case.
In the case of `Cc1c(Cl)cccc1NC(=O)CCc1nnc(CCC2CCCCC2)n1C1CC1` [Example F-94], the EC50 at mouse RORγ and on human RORγ was less than 3 µM each time.
With `Cc1ccc(NC(=O)CCc2nnc(CCC3CCCCC3)n2C2CC2)c(C)c1` [Example F-95], the concentration for a half-maximal effect (EC50) on mouse RORγ and on human RORγ was less than 3 µM throughout.
Turning to `Cc1ccc(NC(=O)CCc2nnc(CO)n2C2CC2)c(C)c1` [Example F-96], the EC50 at mouse RORγ and on human RORγ was greater than 3 µM each time.
In the case of `Cc1ccc(NC(=O)CCc2nnc(COC(C)(C)C)n2C2CC2)c(C)c1` [Example F-97], the EC50 at mouse RORγ and on human RORγ was greater than 3 µM each time.
Consider `Cc1c(NC(=O)CCc2nnc(CCC(C)C)n2C2CC2)cccc1C(F)(F)F` [Example F-99], for which the EC50 is less than 3 µM on mouse RORγ and greater than 3 µM on human RORγ.
For the compound `CC(C)CCc1nnc(CCC(=O)Nc2cccc(Cl)c2F)n1C1CC1` [Example F-100], the EC50 on mouse RORγ and at human RORγ was greater than 3 µM throughout.
Consider `Cc1c(F)cccc1NC(=O)CCc1nnc(CCC(C)C)n1C1CC1` [Example F-101], for which the EC50 on mouse RORγ and at human RORγ was greater than 3 µM throughout.
In the case of `CC(C)CCc1nnc(CCC(=O)NC2CCCCC2C)n1C1CC1` (stereo not drawn) [Example F-102], the EC50 at mouse RORγ and on human RORγ was greater than 3 µM in each case.
For `CC(C)CCc1nnc(CCC(=O)NC[C@H](O)c2ccccc2)n1C1CC1` [Example F-103], the EC50 at mouse RORγ and at human RORγ was greater than 3 µM each time.
With `Cc1cccc(O)c1NC(=O)CCc1nnc(CCC(C)C)n1C1CC1` [Example F-104], the EC50 at mouse RORγ and at human RORγ was greater than 3 µM each time.
On to `CCCCc1nnc(CCC(=O)Nc2cccc(Cl)c2C)n1C1CC1` [Example F-105], for which the EC50 on mouse RORγ and on human RORγ was greater than 3 µM in each case.
In the case of `Cc1noc(NC(=O)CCc2nnc(CCC(C)C)n2C2CC2)c1C` [Example F-106], the EC50 on mouse RORγ and at human RORγ was greater than 3 µM in each case.
Consider `Cc1c(Cl)cccc1NC(=O)CCc1nnc(CC(C)C)n1C1CC1` [Example F-107], for which the EC50 at mouse RORγ and on human RORγ was greater than 3 µM each time.
Take `COc1ccc(CNC(=O)CCc2nnc(CCC(C)C)n2C2CC2)c(C)c1` [Example F-108]: the EC50 at mouse RORγ and on human RORγ was greater than 3 µM in each case.
In the case of `CC(C)CCc1nnc(CCC(=O)Nc2cc(F)cc(Cl)c2)n1C1CC1` [Example F-109], the concentration giving a half-maximal response (EC50) at mouse RORγ and at human RORγ was greater than 3 µM each time.
On to `Cc1cccnc1CNC(=O)CCc1nnc(CCC(C)C)n1C1CC1` [Example F-110], for which the EC50 at mouse RORγ and on human RORγ was greater than 3 µM throughout.
For the compound `Cc1cnccc1CNC(=O)CCc1nnc(CCC(C)C)n1C1CC1` [Example F-111], the EC50 at mouse RORγ and on human RORγ was greater than 3 µM in each case.
In the case of `Cc1ccc(NC(=O)CCc2nnc(CCC3CCCCC3)n2C2CCC2)c(C)c1` [Example F-112], the EC50 on mouse RORγ is less than 3 µM; at human RORγ, greater than 3 µM.
Turning to `Cc1cc(O)ccc1CNC(=O)CCc1nnc(CCC(C)C)n1C1CC1` [Example F-114], the concentration for a half-maximal effect (EC50) at mouse RORγ and on human RORγ was greater than 3 µM throughout.
Turning to `CC(C)CCc1nnc(CCC(=O)NCc2cccc3[nH]cnc23)n1C1CC1` [Example F-115], the EC50 at mouse RORγ and on human RORγ was greater than 3 µM in each case.
With `Cc1ccccc1CCNC(=O)CCc1nnc(CCC(C)C)n1C1CC1` [Example F-116], the EC50 at mouse RORγ and at human RORγ was greater than 3 µM each time.
As to `Cc1cccc(CNC(=O)CCc2nnc(CCC(C)C)n2C2CC2)c1C` [Example F-118], the EC50 at mouse RORγ and at human RORγ was greater than 3 µM throughout.
In the case of `Cc1ccc(CNC(=O)CCc2nnc(CCC(C)C)n2C2CC2)c(C)c1` [Example F-119], the EC50 on mouse RORγ and at human RORγ was less than 3 µM throughout.
Take `Cc1c(Cl)cccc1NC(=O)CCc1nnc(CCCC(C)C)n1C1CC1` [Example F-120]: the concentration giving a half-maximal response (EC50) at mouse RORγ and on human RORγ was less than 3 µM each time.
On to `CC(C)CCc1nnc(CCC(=O)NCc2ccccc2Cl)n1C1CC1` [Example F-121], for which the EC50 at mouse RORγ and on human RORγ was greater than 3 µM throughout.
Take `CC(C)CCc1nnc(CCC(=O)NCc2ccc(Cl)cc2)n1C1CC1` [Example F-122]: the EC50 at mouse RORγ and at human RORγ was greater than 3 µM in each case.
Take `Cc1c(Cl)cccc1CNC(=O)CCc1nnc(CCC(C)C)n1C1CC1` [Example F-123]: the 50% effective concentration (EC50) at mouse RORγ and on human RORγ was greater than 3 µM each time.
With `CCc1ccc(CNC(=O)CCc2nnc(CCC(C)C)n2C2CC2)cc1` [Example F-124], the EC50 at mouse RORγ and on human RORγ was greater than 3 µM in each case.
In the case of `CCc1ccccc1CNC(=O)CCc1nnc(CCC(C)C)n1C1CC1` [Example F-125], the EC50 at mouse RORγ and at human RORγ was greater than 3 µM throughout.
With `Cc1c(F)cccc1CNC(=O)CCc1nnc(CCC(C)C)n1C1CC1` [Example F-126], the half-maximal effective concentration (EC50) on mouse RORγ and on human RORγ was greater than 3 µM throughout.
Regarding `COc1cccc(CNC(=O)CCc2nnc(CCC(C)C)n2C2CC2)c1C` [Example F-127], the EC50 at mouse RORγ and at human RORγ was greater than 3 µM throughout.
Turning to `CC(C)CCc1nnc(CCC(=O)NCc2cccc3[nH]ncc23)n1C1CC1` [Example F-128], the EC50 on mouse RORγ and on human RORγ was greater than 3 µM in each case.
For `CC(C)CCc1nnc(CCC(=O)NCc2ccc(C(F)(F)F)cc2)n1C1CC1` [Example F-129], the EC50 on mouse RORγ and on human RORγ was greater than 3 µM each time.
In the case of `CC(C)CCc1nnc(CCC(=O)NCc2ccccc2C(F)(F)F)n1C1CC1` [Example F-130], the concentration giving a half-maximal response (EC50) at mouse RORγ and at human RORγ was greater than 3 µM in each case.
Consider `Cc1ccc(Cl)cc1NC(=O)CCc1nnc(CCC(C)C)n1C1CC1` [Example F-131], for which the EC50 on mouse RORγ and at human RORγ was greater than 3 µM each time.
Regarding `CCc1cccc(NC(=O)CCc2nnc(CCC(C)C)n2C2CC2)c1` [Example F-132], the EC50 on mouse RORγ and at human RORγ was greater than 3 µM throughout.
Consider `Cc1c(O)cccc1CNC(=O)CCc1nnc(CCC(C)C)n1C1CC1` [Example F-133], for which the EC50 on mouse RORγ and on human RORγ was greater than 3 µM throughout.
For the compound `CC(C)CCc1nnc(CCC(=O)Nc2cnc3ccccn23)n1C1CC1` [Example F-134], the EC50 on mouse RORγ and on human RORγ was greater than 3 µM each time.
Turning to `Cc1c(Cl)cccc1NC(=O)CCc1nnc(C2CCCC(C)C2)n1C1CC1` (stereo not drawn) [Example F-135], the figures for the 50% effective concentration (EC50) at mouse RORγ and at human RORγ were less than 3 µM and greater than 3 µM, respectively.

A word on the EC50: it is the concentration at which the effect is half-maximal.
